In patent US20050037983A1, “Compositions and methods for the treatment of depression and other affective disorders” (priority 2003, published 2005):
Like-named read-outs stand apart in the source and are kept apart here.

Assays:
[1] = tested on: subject with major depression; experiment: Case reports: add-on anti-inflammatory in subjects with major depression, rated on 17 item Hamilton rating scale for depression (HAMD); format: in vivo, human; conditions: person
Experimental: A subject with a 4-5 month history of depression was used in this example. The subject's complaints included low mood, anhedonia, anxiety, poor concentration, significant initial insomnia, mild anorexia and weight loss of approximately 2 kilos. Symptoms were precipitated by problems both in the work and home environment. A diagnosis of major depression was made.
Over three weeks this was increased to 300 mg daily.
Rofecoxib 50 mg daily was added to the venlafaxine.
A subject with a long history of recurring depression was used in this example. The current episode was present for 3 months when initially seen. They were low in mood, tearful, irritable, very anxious and had significant sleep disturbance in the form of initial and delayed insomnia. There was no clear precipitant for their symptoms.
They had been taking venlafaxine for approximately 1 year at a maximum tolerated dose of 225 mg daily.

[2] = in vivo; cited from earlier work
[3] = tested on: cyclooxygenase; conditions: cited from earlier work
[4] = tested on: IL-6; conditions: in vitro; cited from earlier work
[5] = tested on: subjects with DSM-IV major depression; experiment: Human study: 36 subjects with DSM-IV major depression, three randomised groups, response rates; format: in vivo; conditions: Hamilton score greater than 20 at entry; Vioxx 30 mg/day; compared among three groups incl. placebo
Experimental: Thirty six (36) subjects with DSM-IV major depression and Hamilton score greater than 20 were recruited. Subjects were randomly allocated into each of three groups • 1. SSRI plus Vioxx 30 mg/day • 2. Vioxx, 30 mg/day • 3. Placebo All subjects have base line Il-6, IL-1 and cortisol levels assayed using specific assays. Biochemical assays are repeated at the end of weeks 1, 3 and 6. […] Response to treatment was associated with a drop in cortisol levels and pro-inflammatory cytokines.

[6] = tested on: subjects treated with IFN-α; conditions: cited from earlier work; for IL-6 level compared with placebo: as early as four hours after a single dose
[7] = tested on: neutrophils; conditions: cited from earlier work
[8] = subjects treated with interferon alpha

CC(C)Cc1ccc(C(C)C(=O)O)cc1 (stereo not drawn) [Ibruprofen]
HAMD ([1]; baseline HAMD 20, 400 mg three times daily added to venlafaxine 225 mg daily, day 14): 8
day of reported symptomatic improvement ([1]; 400 mg three times daily added to venlafaxine): ≤ 8 days

C[C@@H](C(=O)O)c1ccc(-c2ccccc2)c(F)c1 [R-flurbiprofen]
gastrointestinal mucosal damage [2]: does not cause gastrointestinal mucosal damage
inhibition of cyclooxygenase activity [3]: does not inhibit cyclooxygenase activity
potency of R-enantiomer versus S-enantiomer in down-regulating IL-6 levels [4]: significantly more potent

CS(=O)(=O)c1ccc(C2=C(c3ccccc3)C(=O)OC2)cc1 [Rofecoxib]
response rates [5]: greater than that observed for placebo
HAMD score ([1]; baseline HAMD 22, Rofecoxib 50 mg daily added to venlafaxine 300 mg daily, after 1 week): 11
time to improvement after commencing treatment ([1]; Rofecoxib 50 mg daily added to venlafaxine, subject's description): ≤ 5 days
clinical state at review ([1]; Rofecoxib added to venlafaxine, reviewed 2 weeks later): sustained

CN(C)CCCC1(c2ccc(F)cc2)OCc2cc(C#N)ccc21 (stereo not drawn) [citalopram]
clinical response ([1]; citalopram 20 mg daily alone, after 5 weeks): no response

CC(C)Cc1ccc([C@@H](C)C(=O)O)cc1 [ibuprofen, R-ibuprofen]
potency of R-enantiomer versus S-enantiomer in down-regulating IL-6 levels [4]: significantly more potent

C[C@@H](C(=O)O)c1cccc(C(=O)c2ccccc2)c1 [ketoprofen, R-ketoprofen]
potency of R-enantiomer versus S-enantiomer in down-regulating IL-6 levels [4]: significantly more potent

Fc1ccc([C@@H]2CCNC[C@H]2COc2ccc3c(c2)OCO3)cc1 [paroxetine]
impact in preventing depression [6, 8]: modest impact

O=C(O)c1cc(/N=N/c2ccc(S(=O)(=O)Nc3ccccn3)cc2)ccc1O [sulfasalazine]
induction of apoptosis in neutrophils [7]: capable of inducing apoptosis

COc1ccc(C(CN(C)C)C2(O)CCCCC2)cc1 (stereo not drawn) [venlafaxine]
clinical improvement ([1]; venlafaxine 300 mg daily alone, after 4 weeks on this dose): No clinical improvement

IFN-α
IL-6 level compared with placebo [6]: significantly increased
IL-6 level compared with placebo ([6]; listed as IFN-alpha): significantly increases
subjects in whom major depression is reported [6, 8]: up to 40%
